Assay: in vitro
Settings: for Concentration (μM) of analyte PEA, 0 min / Concentration (μM) of analyte PEA, 10 min / Concentration (μM) of analyte PEA, 20 min / Concentration (μM) of analyte PEA, 30 min / Concentration (μM) of analyte PEA, 60 min / % Remaining of Initial (n = 1), 0 min / % Remaining of Initial (n = 1), 10 min / % Remaining of Initial (n = 1), 20 min / % Remaining of Initial (n = 1), 30 min / % Remaining of Initial (n = 1), 60 min: 1 μM; for % Remaining of Initial (n = 1), 0 min: s9, 0 h; for % Remaining of Initial (n = 1), 10 min: s9, 10 min; for % Remaining of Initial (n = 1), 20 min: s9, 20 min; for % Remaining of Initial (n = 1), 30 min: s9, 0.5 h; for % Remaining of Initial (n = 1), 60 min: s9, 1 h; for half-life at 1 μM: s9, Half-life (min)
Outline: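 Incubations ran at 37° C in S9 with 1 μM test article, started by cofactor cocktail, sampled at 0, 10, 20, 30, 60 min and stopped with cold acidified acetonitrile.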

Compound: CCCCCCCCCCCCCCCC(=O)NCCOC(=O)CCC [Compound I-2]
- Concentration (μM) of analyte PEA, 0 min (both, human): 0.20 µM
- Concentration (μM) of analyte PEA, 10 min (both, human): 0.23 µM
- Concentration (μM) of analyte PEA, 20 min (both, human): 0.18 µM
- Concentration (μM) of analyte PEA, 30 min (both, human): 0.096 µM
- Concentration (μM) of analyte PEA, 60 min (both, human): 0.033 µM
- % Remaining of Initial (n = 1), 0 min (both, human): 100%
- % Remaining of Initial (n = 1), 10 min (both, human): 6.0%
- % Remaining of Initial (n = 1), 20 min (both, human): 1.3%
- % Remaining of Initial (n = 1), 30 min (both, human): <1.0%
- % Remaining of Initial (n = 1), 60 min (both, human): <1.0%
- Concentration (μM) of analyte PEA, 0 min (male, Beagle, dog): 0.23 µM
- Concentration (μM) of analyte PEA, 10 min (male, Beagle, dog): 0.38 µM
- Concentration (μM) of analyte PEA, 20 min (male, Beagle, dog): 0.35 µM
- Concentration (μM) of analyte PEA, 30 min (male, Beagle, dog): 0.21 µM
- Concentration (μM) of analyte PEA, 60 min (male, Beagle, dog): 0.11 µM
- % Remaining of Initial (n = 1), 0 min (male, Beagle, dog): 100%
- % Remaining of Initial (n = 1), 10 min (male, Beagle, dog): 5.1%
- % Remaining of Initial (n = 1), 20 min (male, Beagle, dog): 2.0%
- % Remaining of Initial (n = 1), 30 min (male, Beagle, dog): <1.0%
- % Remaining of Initial (n = 1), 60 min (male, Beagle, dog): <1.0%
- Concentration (μM) of analyte PEA, 0 min (male, CD-1, mouse): 0.51 µM
- Concentration (μM) of analyte PEA, 10 min (male, CD-1, mouse): 0.26 µM
- Concentration (μM) of analyte PEA, 20 min (male, CD-1, mouse): 0.19 µM
- Concentration (μM) of analyte PEA, 30 min (male, CD-1, mouse): 0.12 µM
- Concentration (μM) of analyte PEA, 60 min (male, CD-1, mouse): 0.022 µM
- % Remaining of Initial (n = 1), 0 min (male, CD-1, mouse): 100%
- % Remaining of Initial (n = 1), 10 min (male, CD-1, mouse): <1.0%
- % Remaining of Initial (n = 1), 20 min (male, CD-1, mouse): <1.0%
- % Remaining of Initial (n = 1), 30 min (male, CD-1, mouse): <1.0%
- % Remaining of Initial (n = 1), 60 min (male, CD-1, mouse): <1.0%
- half-life at 1 μM (male, CD-1, mouse): < 0.0167 h
- Concentration (μM) of analyte PEA, 0 min (male, Sprague-Dawley, rat): 0.50 µM
- Concentration (μM) of analyte PEA, 10 min (male, Sprague-Dawley, rat): 0.31 µM
- Concentration (μM) of analyte PEA, 20 min (male, Sprague-Dawley, rat): 0.17 µM
- Concentration (μM) of analyte PEA, 30 min (male, Sprague-Dawley, rat): 0.11 µM
- Concentration (μM) of analyte PEA, 60 min (male, Sprague-Dawley, rat): 0.023 µM
- % Remaining of Initial (n = 1), 0 min (male, Sprague-Dawley, rat): 100%
- % Remaining of Initial (n = 1), 10 min (male, Sprague-Dawley, rat): <1.0%
- % Remaining of Initial (n = 1), 20 min (male, Sprague-Dawley, rat): <1.0%
- % Remaining of Initial (n = 1), 30 min (male, Sprague-Dawley, rat): <1.0%
- % Remaining of Initial (n = 1), 60 min (male, Sprague-Dawley, rat): <1.0%
- half-life at 1 μM (male, Sprague-Dawley, rat): < 0.0167 h

Compound: CCCCCCCCCCCCCCCC(=O)NCCOC(=O)CCC(=O)OCC(COC(=O)CCCCCCC)OC(=O)CCCCCCC (stereo not shown) [Compound I-3, PEA-Succinate-Glycerol-Di-Caprylic]
- Concentration (μM) of analyte PEA, 0 min (both, human): 0.00032 µM
- Concentration (μM) of analyte PEA, 10 min (both, human): 0.0058 µM
- Concentration (μM) of analyte PEA, 20 min (both, human): 0.017 µM
- Concentration (μM) of analyte PEA, 30 min (both, human): 0.015 µM
- Concentration (μM) of analyte PEA, 60 min (both, human): 0.0096 µM
- % Remaining of Initial (n = 1), 0 min (both, human): 100%
- % Remaining of Initial (n = 1), 10 min (both, human): 104%
- % Remaining of Initial (n = 1), 20 min (both, human): 89%
- % Remaining of Initial (n = 1), 30 min (both, human): 95%
- % Remaining of Initial (n = 1), 60 min (both, human): 66%
- half-life at 1 μM (both, human): > 1 h
- Concentration (μM) of analyte PEA, 0 min (male, Beagle, dog): 0.010 µM
- Concentration (μM) of analyte PEA, 10 min (male, Beagle, dog): 0.030 µM
- Concentration (μM) of analyte PEA, 20 min (male, Beagle, dog): 0.035 µM
- Concentration (μM) of analyte PEA, 30 min (male, Beagle, dog): 0.031 µM
- Concentration (μM) of analyte PEA, 60 min (male, Beagle, dog): 0.029 µM
- % Remaining of Initial (n = 1), 0 min (male, Beagle, dog): 100%
- % Remaining of Initial (n = 1), 10 min (male, Beagle, dog): 104%
- % Remaining of Initial (n = 1), 20 min (male, Beagle, dog): 89%
- % Remaining of Initial (n = 1), 30 min (male, Beagle, dog): 80%
- % Remaining of Initial (n = 1), 60 min (male, Beagle, dog): 86%
- half-life at 1 μM (male, Beagle, dog): > 1 h
- Concentration (μM) of analyte PEA, 0 min (male, CD-1, mouse): 0.013 µM
- Concentration (μM) of analyte PEA, 10 min (male, CD-1, mouse): 0.031 µM
- Concentration (μM) of analyte PEA, 20 min (male, CD-1, mouse): 0.022 µM
- Concentration (μM) of analyte PEA, 30 min (male, CD-1, mouse): 0.023 µM
- Concentration (μM) of analyte PEA, 60 min (male, CD-1, mouse): 0.025 µM
- % Remaining of Initial (n = 1), 0 min (male, CD-1, mouse): 100%
- % Remaining of Initial (n = 1), 10 min (male, CD-1, mouse): 82%
- % Remaining of Initial (n = 1), 20 min (male, CD-1, mouse): 61%
- % Remaining of Initial (n = 1), 30 min (male, CD-1, mouse): 78%
- % Remaining of Initial (n = 1), 60 min (male, CD-1, mouse): 61%
- half-life at 1 μM (male, CD-1, mouse): > 1 h
- half-life at 1 μM (male, CD-1, mouse, calculated half-life in parentheses): 1.45 h
- Concentration (μM) of analyte PEA, 0 min (male, Sprague-Dawley, rat): 0.015 µM
- Concentration (μM) of analyte PEA, 10 min (male, Sprague-Dawley, rat): 0.045 µM
- Concentration (μM) of analyte PEA, 20 min (male, Sprague-Dawley, rat): 0.033 µM
- Concentration (μM) of analyte PEA, 30 min (male, Sprague-Dawley, rat): 0.017 µM
- Concentration (μM) of analyte PEA, 60 min (male, Sprague-Dawley, rat): 0.013 µM
- % Remaining of Initial (n = 1), 0 min (male, Sprague-Dawley, rat): 100%
- % Remaining of Initial (n = 1), 10 min (male, Sprague-Dawley, rat): 66%
- % Remaining of Initial (n = 1), 20 min (male, Sprague-Dawley, rat): 69%
- % Remaining of Initial (n = 1), 30 min (male, Sprague-Dawley, rat): 71%
- % Remaining of Initial (n = 1), 60 min (male, Sprague-Dawley, rat): 52%
- half-life at 1 μM (male, Sprague-Dawley, rat): > 1 h
- half-life at 1 μM (male, Sprague-Dawley, rat, calculated half-life in parentheses): 1.2 h

Source: patent US11547681B2, “N-acylethanolamide derivatives and uses thereof” (ELIEM THERAPEUTICS, INC., priority 2016, dated 2023)
